Experimental data reported in patent US9650339B2, “Inhibitors of histone demethylases” (Gilead Sciences, Inc., priority 2013, dated 2017).

Columns and labels:
KDM4C = target: T1, KDM4C (Homo sapiens, UniProt Q9H3R0); test: Histone lysine demethylase immunofluorescence assay, U2OS cells transfected with KDM4C; format: cell-based; details: U2OS cells transfected with pCMVHA KDM4C; mark detected H3K9me3; 20 hours
T1 construct: Full length; host or cells: U2OS
T1 sequence (Q9H3R0 1-1056): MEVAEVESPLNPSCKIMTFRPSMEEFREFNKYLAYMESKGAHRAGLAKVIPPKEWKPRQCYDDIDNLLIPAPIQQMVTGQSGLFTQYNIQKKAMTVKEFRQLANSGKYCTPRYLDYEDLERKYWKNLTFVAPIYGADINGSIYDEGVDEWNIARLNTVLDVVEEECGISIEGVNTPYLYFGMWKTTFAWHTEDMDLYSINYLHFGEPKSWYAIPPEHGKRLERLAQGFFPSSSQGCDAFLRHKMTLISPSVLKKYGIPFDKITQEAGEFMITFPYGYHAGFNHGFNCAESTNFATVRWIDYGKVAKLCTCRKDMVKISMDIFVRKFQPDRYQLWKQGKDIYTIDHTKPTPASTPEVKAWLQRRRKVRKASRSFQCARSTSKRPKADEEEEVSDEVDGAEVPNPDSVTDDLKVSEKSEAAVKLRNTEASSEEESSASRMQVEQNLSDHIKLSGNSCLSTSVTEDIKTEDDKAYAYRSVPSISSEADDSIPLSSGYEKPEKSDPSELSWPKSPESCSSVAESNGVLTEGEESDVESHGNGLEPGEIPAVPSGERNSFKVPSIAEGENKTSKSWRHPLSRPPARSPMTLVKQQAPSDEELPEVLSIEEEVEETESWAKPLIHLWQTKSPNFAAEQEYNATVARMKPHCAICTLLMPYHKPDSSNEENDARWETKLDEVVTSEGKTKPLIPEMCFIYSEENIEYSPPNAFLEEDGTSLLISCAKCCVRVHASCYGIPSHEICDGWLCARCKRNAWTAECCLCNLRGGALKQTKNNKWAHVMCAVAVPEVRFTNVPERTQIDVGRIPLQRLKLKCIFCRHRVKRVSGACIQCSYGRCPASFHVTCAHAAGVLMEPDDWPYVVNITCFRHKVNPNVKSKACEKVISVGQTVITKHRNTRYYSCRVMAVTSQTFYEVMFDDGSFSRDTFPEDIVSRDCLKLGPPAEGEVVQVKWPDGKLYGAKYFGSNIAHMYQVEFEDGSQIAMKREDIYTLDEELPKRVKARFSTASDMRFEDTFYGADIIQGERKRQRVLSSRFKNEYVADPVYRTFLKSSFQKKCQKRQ
Procedure, shortened: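 U2OS cells were transiently transfected with HA-tagged demethylase and reseeded after 6 h into compound-containing DMEM/10% FBS for 20 h. Cells were fixed in formaldehyde and immunostained for HA and the relevant histone methyl mark, then imaged. IC50 is based on mean mark staining in HA+ transfected cells.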

KDM5B (PLU-1) = target: T2, KDM5B (PLU-1) (Homo sapiens, UniProt Q9UGL1); test: Histone lysine demethylase AlphaLISA assay, KDM5B; format: biochemical; details: read-out: KDM5B HDME Inhibition IC50
T2 sequence (Q9UGL1 1-809): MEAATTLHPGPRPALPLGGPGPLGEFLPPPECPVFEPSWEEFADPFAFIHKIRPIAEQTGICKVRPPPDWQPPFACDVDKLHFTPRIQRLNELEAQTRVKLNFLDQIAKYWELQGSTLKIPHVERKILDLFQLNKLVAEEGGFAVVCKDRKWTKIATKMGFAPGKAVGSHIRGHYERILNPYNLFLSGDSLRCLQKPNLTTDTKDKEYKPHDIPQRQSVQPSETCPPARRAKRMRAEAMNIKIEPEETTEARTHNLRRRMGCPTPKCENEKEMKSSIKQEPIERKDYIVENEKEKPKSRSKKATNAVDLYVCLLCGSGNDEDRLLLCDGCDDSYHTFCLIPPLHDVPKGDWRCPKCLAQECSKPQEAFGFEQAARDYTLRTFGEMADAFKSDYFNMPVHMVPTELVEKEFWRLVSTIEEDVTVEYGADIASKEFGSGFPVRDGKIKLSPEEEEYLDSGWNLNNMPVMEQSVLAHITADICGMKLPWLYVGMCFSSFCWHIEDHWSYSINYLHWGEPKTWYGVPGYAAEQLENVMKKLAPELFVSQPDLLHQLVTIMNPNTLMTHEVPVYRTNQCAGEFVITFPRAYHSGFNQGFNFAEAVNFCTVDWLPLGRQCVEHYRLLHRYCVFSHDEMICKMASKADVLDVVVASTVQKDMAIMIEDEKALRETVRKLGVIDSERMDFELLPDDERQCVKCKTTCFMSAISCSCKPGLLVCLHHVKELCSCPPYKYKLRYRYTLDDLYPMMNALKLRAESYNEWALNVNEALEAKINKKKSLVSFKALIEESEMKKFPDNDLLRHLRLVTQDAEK
Procedure, shortened: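 AlphaLISA demethylation readout: enzyme preincubated 10 min, then 10 min with compounds in 3% DMSO buffer, before biotinylated methyl-lysine histone peptide substrate with 25 μM L-Asc and 10 μM α-KG, room temperature. Acceptor beads then streptavidin donor beads added, dark incubation, plates read.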

| Structure (SMILES) | IC50 (KDM4C) | IC50 (KDM5B (PLU-1)) |
| --- | --- | --- |
| CN(C)CCCCNCc1cc(CN)ccn1 [Compound 2, [2-({[4-(dimethylamino)butyl]-amino}methyl)pyridin-4-yl]methanamine] | 0.25 to 2.5 µM | > 2.5 µM |
| CN(C)CCNCc1ccnc(CNCCCN(C)Cc2ccccc2)c1 [Compound 18, benzyl[3-({[4-({[2-(dimethylamino)ethyl]-amino}methyl)pyridin-2-yl]methyl}-amino)propyl]-methylamine] |  | 0.25 to 2.5 µM |
| CCN(CCN(C)C)C(=O)CN(Cc1cc(CNC(=O)C(F)(F)F)ccn1)C(=O)C(F)(F)F [Compound 26, N-[(2-{[N-({[2-(dimethylamino)ethyl]-(ethyl)carbamoyl}-methyl)-2,2,2-trifluoroacetamido]-methyl}pyridin-4-yl)methyl]-2,2,2-trifIuoroacetamide] | 0.25 to 2.5 µM | > 2.5 µM |
| COCCNCc1ccnc(CNCCCN(C)Cc2ccccc2)c1 [Compound 19, benzyl(3-{[(4-{[(2-methoxyethyl)amino]-methyl}pyridin-2-yl)methyl]amino}-propyl)methylamine] | > 2.5 µM | 0.25 to 2.5 µM |

Results, then the compound that gave them:

| IC50 (KDM4C) | IC50 (KDM5B (PLU-1)) | Structure (SMILES) |
| --- | --- | --- |
| 0.25 to 2.5 µM | < 0.25 µM | CCN(CC)CCCCNCc1cc(C2NCCCN2C)ccn1 (centres unmarked) [Compound 68, [4-(diethylamino)butyl]({[4-(1-methyl-1,3-diazinan-2-yl)pyridin-2-yl]methyl})amine] |
| > 2.5 µM | < 0.25 µM | COC(=O)CNCc1cc(/C=N/C2CC2)ccn1 [Compound 59, methyl 2-[({4-[N-cyclopropyl-carboximidoyl]pyridin-2-yl}methyl)amino]-acetate] |
| > 2.5 µM | < 0.25 µM | COc1ccccc1CN1CCC(NC(=O)CNCc2cc(CNC3CC3)ccn2)CC1 [Compound 20, 2-[({4-[(cyclopropylamino)-methyl]pyridin-2-yl}methyl)amino]-N-{1-[(2-methoxyphenyl)methyl]-piperidin-4-yl}acetamide] |
| > 2.5 µM | < 0.25 µM | O=Cc1ccnc(CNCC(=O)NC2CCN(Cc3ccccc3)C2)c1 (centres unmarked) [Compound 113, N-(1-benzylpyrrolidin-3-yl)-2-{[(4-formylpyridin-2-yl)methyl]amino}-acetamide] |
| > 2.5 µM | < 0.25 µM | O=Cc1ccnc(CNCCCCN(Cc2ccccc2)C2CC2)c1 [Compound 109, 2-[({4-[benzyl-(cyclopropyl)amino]-butyl}amino)methyl]-pyridine-4-carbaldehyde] |
